Reference: the supplement of paper PMC3493320
Values joined by “and” are separate entries in the source; they are usually repeats but may differ in a detail not shown here. Identical values can stand only once.

Columns and labels:
NCI-H295R [1] = assay: maximal response (efficacy) relative to DMSO (0%) and doxorubicin (-100%); higher = less growth inhibition; details: 48 h
NCI-H295R [2] = assay: IC50 (antiproliferative, ATP content); details: 48 h

IC50 (NCI-H295R [2])	Compound	maximal response (NCI-H295R [1])
2.99 µM	OC[C@H]1O[C@@H](n2cnc3c(S)ncnc32)[C@H](O)[C@@H]1O	-68.2%
15 µM	CN(C)c1ccc2nc3ccc(N(C)C)cc3[s+]c2c1.[Cl-]	-109%
0.335 µM	O=C\1OC/C(=C/1)[C@H]2CC[C@@]9(O)[C@]2(C)[C@H](O)C[C@H]3[C@H]9CC[C@@H]4C[C@H](CC[C@]34C)O[C@@H]8O[C@H](C)[C@@H](O[C@@H]7O[C@H](C)[C@@H](O[C@@H]6O[C@H](C)[C@@H](O[C@@H]5O[C@H](CO)[C@@H](O)[C@H](O)[C@H]5O)[C@@H](O)C6)[C@@H](O)C7)[C@@H](O)C8	-110%
23.7 µM	COc1ccc(C=CC(=O)c2ccc(OC)cc2OC)cc1	-117%
11.9 µM	[O-]S(C1=C(O)C(\C(C4=CC=C(N(C)C)C=C4)=C(C=C2)/C=C/C2=[N+](C)\C)=C(C=C3)C(C=C3S([O-])(=O)=O)=C1)(=O)=O.[Na+]	-103%
4.22 µM	CC[C@H](C)[C@H]1O[C@]2(CC[C@@H]1C)C[C@@H]1C[C@@H](C/C=C(\C)[C@@H](O[C@H]3C[C@H](OC)[C@@H](O[C@H]4C[C@H](OC)[C@@H](O)[C@H](C)O4)[C@H](C)O3)[C@@H](C)/C=C/C=C3\CO[C@@H]4[C@H](O)C(C)=C[C@@H](C(=O)O1)[C@]34O)O2	-123%
15 µM	Oc1c(Cl)cc(Cl)c(Cl)c1Cc1c(O)c(Cl)cc(Cl)c1Cl	-121%
23.7 µM	Cc1cc(CC(C)CC(C)(C)C)n(O)c(=O)c1.NCCO (stereo not given)	-96.2%
13.3 µM	CCCCCCCCCCCCCCCCOCCOCCOCCOCCOCCOCCOCCOCCOCCOCCOCCOCCOCCOCCOCCOCCOCCOCCOCCOCCO	-124%
8.41 µM	CC(C)CCC[C@@H](C)[C@H]1CC(=O)C2=C3CC[C@H]4C[C@@H](O)CC[C@]4(C)[C@H]3CC[C@@]21C	-65%
0.376 µM	Cc1c2oc3c(C)ccc(C(=O)N[C@@H]4C(=O)N[C@H](C(C)C)C(=O)N5CCC[C@H]5C(=O)N(C)CC(=O)N(C)[C@@H](C(C)C)C(=O)O[C@H]4C)c3nc-2c(C(=O)N[C@@H]2C(=O)N[C@H](C(C)C)C(=O)N3CCC[C@H]3C(=O)N(C)CC(=O)N(C)[C@@H](C(C)C)C(=O)O[C@H]2C)c(N)c1=O	-113%
0.64 µM	Cc1cc(C2CCCCC2)n(O)c(=O)c1.NCCO	-61.1%
3.76 µM	O=C1C(=O)c2ncccc2-c2cccnc21	-63%
23.7 µM	CCCCCCCCCCCCCC[N+](C)(C)C.[Br-]	-160%
0.299 µM and 0.335 µM	CC(C)C[C@H](NC(=O)[C@H](Cc1ccccc1)NC(=O)c1cnccn1)B(O)O	-74.3% and -77.1%
21.1 µM	CCCCCCCCN[C@H](C)C(O)c1ccc(SC(C)C)cc1 (stereo not given in full)	-137%
26.6 µM	C=C1CC[C@H](O)C/C1=C/C=C1\CCC[C@]2(C)[C@@H]([C@H](C)CCCC(C)(C)O)CC[C@@H]12	-166%
21.1 µM	C[n+]1c2cc(N)ccc2cc2ccc(N)cc21.Nc1ccc2cc3ccc(N)cc3nc2c1.[Cl-]	-168%
15 µM	Oc1ccc(Cl)cc1Sc1cc(Cl)ccc1O	-135%
0.531 µM	O=C(Nc1ccc([N+](=O)[O-])cc1Cl)c1cc(Cl)ccc1O	-94.3%

Compound	IC50 (NCI-H295R [2])	maximal response (NCI-H295R [1])
CC(=O)[O][Hg][c]1ccccc1	2.99 µM	-126%
CO[C@@H]1[C@H](C)O[C@@H](O[C@H]2C[C@@H](Oc3cc4cc5c(c(O)c4c(O)c3C)C(=O)[C@H](O[C@@H]3C[C@H](O[C@@H]4C[C@H](O[C@@H]6C[C@@](C)(O)[C@H](OC(C)=O)[C@@H](C)O6)[C@@H](O)[C@H](C)O4)[C@@H](O)[C@H](C)O3)[C@@H]([C@@H](OC)C(=O)[C@H](O)[C@H](C)O)C5)O[C@@H](C)[C@H]2OC(C)=O)C[C@@H]1O	1.06 µM	-111%
c1ccc2c(c1)OCC(C1=NCCN1)O2 (stereo not given)	18.8 µM	-106%
[O-]C(C(I)=C2)=C(I)C=C2/C(C(C=CC=C3)=C3C([O-])=O)=C1\C=C(I)C(C(I)=C1)=O.[Na+].[Na+]	26.6 µM	-104%
[Cl-].[Cl-].[Hg+2]	11.9 µM	-127%
